Measured values taken from ChEMBL document CHEMBL1201862, “PubChem BioAssay data set” (2004).
Each block holds one compound with its values, some of them ahead of it. The source made the active and inactive calls.

What was measured:
Ion channel NompC = Ion channel NompC (Danio rerio, UniProt Q7T1G6); experiment: Dose response cell-based high-throughput screening assay for agonists of the transient receptor potential channel N1 (TRPN1). [Related pubchem assays (depositor defined):AID1424, AID1448]; type: functional
Chain of Ion channel NompC (Q7T1G6 whole entry): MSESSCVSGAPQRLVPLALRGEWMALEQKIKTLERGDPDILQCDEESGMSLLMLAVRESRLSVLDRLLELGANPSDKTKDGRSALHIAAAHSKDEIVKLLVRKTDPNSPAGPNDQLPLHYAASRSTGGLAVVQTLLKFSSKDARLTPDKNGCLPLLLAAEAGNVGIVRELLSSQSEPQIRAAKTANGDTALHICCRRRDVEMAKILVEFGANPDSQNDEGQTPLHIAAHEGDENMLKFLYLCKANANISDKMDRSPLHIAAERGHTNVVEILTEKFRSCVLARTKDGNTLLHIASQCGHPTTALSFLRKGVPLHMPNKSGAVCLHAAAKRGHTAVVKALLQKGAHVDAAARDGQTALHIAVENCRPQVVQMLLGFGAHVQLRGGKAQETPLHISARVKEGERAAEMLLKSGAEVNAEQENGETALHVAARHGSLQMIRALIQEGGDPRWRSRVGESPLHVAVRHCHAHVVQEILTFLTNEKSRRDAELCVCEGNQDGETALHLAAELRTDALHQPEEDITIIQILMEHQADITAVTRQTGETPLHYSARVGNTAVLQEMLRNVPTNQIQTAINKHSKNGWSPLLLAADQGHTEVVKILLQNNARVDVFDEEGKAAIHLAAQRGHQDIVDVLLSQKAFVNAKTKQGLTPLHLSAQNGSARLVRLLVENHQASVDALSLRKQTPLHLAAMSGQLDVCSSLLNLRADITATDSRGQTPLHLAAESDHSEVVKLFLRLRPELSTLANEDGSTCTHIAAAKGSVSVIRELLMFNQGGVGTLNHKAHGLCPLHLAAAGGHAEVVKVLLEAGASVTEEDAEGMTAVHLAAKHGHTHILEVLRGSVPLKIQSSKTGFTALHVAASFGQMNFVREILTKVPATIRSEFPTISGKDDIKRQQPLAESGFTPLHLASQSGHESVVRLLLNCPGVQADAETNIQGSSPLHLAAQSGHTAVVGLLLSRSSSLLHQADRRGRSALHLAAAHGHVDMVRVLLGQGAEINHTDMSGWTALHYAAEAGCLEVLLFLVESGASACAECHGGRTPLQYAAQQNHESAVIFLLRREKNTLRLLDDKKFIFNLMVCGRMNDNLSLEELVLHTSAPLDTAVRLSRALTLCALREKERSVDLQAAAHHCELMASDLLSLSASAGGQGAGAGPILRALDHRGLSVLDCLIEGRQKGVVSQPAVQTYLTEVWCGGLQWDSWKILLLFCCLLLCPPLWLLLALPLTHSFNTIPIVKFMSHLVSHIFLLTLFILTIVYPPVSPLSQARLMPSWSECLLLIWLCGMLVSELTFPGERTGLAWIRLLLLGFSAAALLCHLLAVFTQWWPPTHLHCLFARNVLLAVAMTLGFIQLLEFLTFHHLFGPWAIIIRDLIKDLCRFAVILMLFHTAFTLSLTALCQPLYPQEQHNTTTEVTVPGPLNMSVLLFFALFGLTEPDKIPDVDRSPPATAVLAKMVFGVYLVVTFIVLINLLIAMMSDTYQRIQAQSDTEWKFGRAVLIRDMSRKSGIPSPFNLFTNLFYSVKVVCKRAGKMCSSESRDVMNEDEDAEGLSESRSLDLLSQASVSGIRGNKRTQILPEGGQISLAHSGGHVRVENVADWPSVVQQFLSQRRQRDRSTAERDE

Mucolipin-3 = target: T1, Mucolipin-3 (Homo sapiens, UniProt Q8TDD5); experiment: Fluorescence counterscreen assay for […] agonists: dose response cell-based high-throughput screening assay to identify agonists of the transient receptor potential channel ML3 (TRPML3). [Related pubchem assays: 1424, 1448 ]; type: functional
T1 sequence (Q8TDD5 whole entry): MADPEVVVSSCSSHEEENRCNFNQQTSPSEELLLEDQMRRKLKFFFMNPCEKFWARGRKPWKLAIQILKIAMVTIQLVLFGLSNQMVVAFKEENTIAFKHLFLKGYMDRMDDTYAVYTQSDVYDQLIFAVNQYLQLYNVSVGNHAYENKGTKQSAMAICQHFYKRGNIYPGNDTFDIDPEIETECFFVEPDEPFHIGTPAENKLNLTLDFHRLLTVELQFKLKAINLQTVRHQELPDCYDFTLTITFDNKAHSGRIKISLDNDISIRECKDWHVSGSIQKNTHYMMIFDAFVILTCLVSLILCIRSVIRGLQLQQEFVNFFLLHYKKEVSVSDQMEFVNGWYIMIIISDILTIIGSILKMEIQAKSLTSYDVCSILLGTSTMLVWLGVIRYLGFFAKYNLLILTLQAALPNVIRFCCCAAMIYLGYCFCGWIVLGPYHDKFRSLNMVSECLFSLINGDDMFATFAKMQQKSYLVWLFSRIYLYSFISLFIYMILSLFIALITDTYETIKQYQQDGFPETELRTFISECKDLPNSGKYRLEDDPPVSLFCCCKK

Perilipin-1/ABHD5 = Perilipin-1/ABHD5 (Homo sapiens, UniProt O60240+Q8WTS1); experiment: Luminescence-based biochemical high throughput dose response assay for inhibitors of the interaction of the lipase co-activator protein, abhydrolase domain containing 5 (ABHD5) with perilipin-1 (PLIN1) (2K validation set). [Related pubchem assays (depositor defined):AID493027, AID493057]
Chain of Perilipin-1/ABHD5 (Q8WTS1 whole entry, the tested form may be a part): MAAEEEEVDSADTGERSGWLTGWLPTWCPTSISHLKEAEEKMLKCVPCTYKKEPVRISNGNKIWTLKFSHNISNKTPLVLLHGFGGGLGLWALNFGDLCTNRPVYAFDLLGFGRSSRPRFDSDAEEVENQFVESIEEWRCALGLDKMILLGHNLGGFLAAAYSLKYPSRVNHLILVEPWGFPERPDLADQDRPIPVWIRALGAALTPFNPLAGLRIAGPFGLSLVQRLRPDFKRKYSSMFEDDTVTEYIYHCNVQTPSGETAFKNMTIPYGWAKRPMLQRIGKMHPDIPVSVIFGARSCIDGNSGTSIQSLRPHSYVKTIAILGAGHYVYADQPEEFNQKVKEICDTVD
Chain of Perilipin-1/ABHD5 (O60240 whole entry, the tested form may be a part): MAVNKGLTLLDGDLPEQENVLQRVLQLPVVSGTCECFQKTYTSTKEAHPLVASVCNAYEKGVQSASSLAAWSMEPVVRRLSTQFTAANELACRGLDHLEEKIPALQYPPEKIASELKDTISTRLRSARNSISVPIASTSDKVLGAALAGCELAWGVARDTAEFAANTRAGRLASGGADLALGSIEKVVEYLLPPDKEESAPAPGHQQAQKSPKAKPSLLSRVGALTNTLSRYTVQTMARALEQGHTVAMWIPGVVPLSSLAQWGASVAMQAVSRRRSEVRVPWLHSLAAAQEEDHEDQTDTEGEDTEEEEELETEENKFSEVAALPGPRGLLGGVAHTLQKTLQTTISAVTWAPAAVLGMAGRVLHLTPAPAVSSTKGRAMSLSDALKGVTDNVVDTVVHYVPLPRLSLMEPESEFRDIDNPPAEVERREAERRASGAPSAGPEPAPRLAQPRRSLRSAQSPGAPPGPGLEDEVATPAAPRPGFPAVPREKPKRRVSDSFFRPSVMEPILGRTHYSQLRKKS

[1] = target: 1-acylglycerol-3-phosphate O-acyltransferase ABHD5/Perilipin-5 (Homo sapiens, UniProt Q00G26+Q8WTS1); experiment: Luminescence-based biochemical high throughput dose response assay for inhibitors of the interaction of the lipase co-activator protein, abhydrolase domain containing 5 (ABHD5) with perilipin-5 (MLDP; PLIN5) (2K validation set). [Related pubchem assays (depositor defined):AID493035, AID493241]
Chain of 1-acylglycerol-3-phosphate O-acyltransferase ABHD5/Perilipin-5 (Q00G26 whole entry, the tested form may be a part): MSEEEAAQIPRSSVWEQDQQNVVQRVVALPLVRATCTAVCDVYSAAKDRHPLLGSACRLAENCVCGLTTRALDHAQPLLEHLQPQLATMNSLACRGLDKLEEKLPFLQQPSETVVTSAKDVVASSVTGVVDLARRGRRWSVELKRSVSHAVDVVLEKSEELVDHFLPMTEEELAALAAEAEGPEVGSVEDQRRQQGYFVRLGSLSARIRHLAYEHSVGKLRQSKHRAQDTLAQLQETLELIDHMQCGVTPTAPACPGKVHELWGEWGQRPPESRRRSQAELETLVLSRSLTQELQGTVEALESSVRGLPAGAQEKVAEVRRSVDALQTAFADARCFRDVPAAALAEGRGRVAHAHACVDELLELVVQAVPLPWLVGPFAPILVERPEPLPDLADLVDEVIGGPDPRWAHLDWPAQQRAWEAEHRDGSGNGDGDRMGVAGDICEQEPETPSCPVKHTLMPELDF
Chain of 1-acylglycerol-3-phosphate O-acyltransferase ABHD5/Perilipin-5 (Q8WTS1 whole entry, the tested form may be a part): as the sequence (Q8WTS1 whole entry, the tested form may be a part) above

[2] = target: T2, E3 ubiquitin-protein ligase XIAP (Homo sapiens, UniProt P98170); experiment: Counter Screen using XIAP-Bir3 for Chemical Antagonists of Bir1/2 domains of IAP-family anti-apoptotic proteins. [Related pubchem assays (depositor defined):AID1018, AID1449, AID1514, AID1638, AID1749, AID1750, AID488957, AID488963]
T2 sequence (P98170 whole entry): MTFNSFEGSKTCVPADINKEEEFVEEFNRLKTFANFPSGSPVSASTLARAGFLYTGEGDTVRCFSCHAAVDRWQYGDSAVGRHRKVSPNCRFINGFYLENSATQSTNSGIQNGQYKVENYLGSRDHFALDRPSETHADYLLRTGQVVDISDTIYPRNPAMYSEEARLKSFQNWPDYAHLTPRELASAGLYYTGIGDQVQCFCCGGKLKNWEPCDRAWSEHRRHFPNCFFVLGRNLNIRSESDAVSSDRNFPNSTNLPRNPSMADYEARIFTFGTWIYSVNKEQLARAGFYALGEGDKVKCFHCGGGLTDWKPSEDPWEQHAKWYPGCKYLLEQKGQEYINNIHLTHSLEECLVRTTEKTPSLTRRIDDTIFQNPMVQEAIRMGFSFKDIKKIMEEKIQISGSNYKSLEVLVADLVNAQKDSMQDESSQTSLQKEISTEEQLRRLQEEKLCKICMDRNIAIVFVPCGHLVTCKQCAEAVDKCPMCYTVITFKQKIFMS

[3] = target: T2, E3 ubiquitin-protein ligase XIAP; experiment: XIAP antagonists, biochemical, IAP family, fluorescence polarization (AID 1018); type: functional
[4] = target: Sphingosine 1-phosphate receptor 4 (Homo sapiens, UniProt O95977); experiment: S1P4 receptor agonists, human, late-stage follow-up, cell-based, fluorescence, synthesized compounds (AID 463107); type: functional
Chain of Sphingosine 1-phosphate receptor 4 (O95977 whole entry): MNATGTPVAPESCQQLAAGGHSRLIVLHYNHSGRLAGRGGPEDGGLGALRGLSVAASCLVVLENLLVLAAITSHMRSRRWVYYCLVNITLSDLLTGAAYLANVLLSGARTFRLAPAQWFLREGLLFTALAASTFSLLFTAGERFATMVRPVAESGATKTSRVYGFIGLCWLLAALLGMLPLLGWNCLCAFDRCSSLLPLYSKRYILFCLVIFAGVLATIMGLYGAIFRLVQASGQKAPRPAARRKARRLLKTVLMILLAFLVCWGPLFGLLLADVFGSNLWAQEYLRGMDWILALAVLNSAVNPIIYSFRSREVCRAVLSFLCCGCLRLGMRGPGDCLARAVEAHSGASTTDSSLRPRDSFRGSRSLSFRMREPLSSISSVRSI

[5] = target: T3, Alkaline phosphatase, tissue-nonspecific isozyme (Homo sapiens, UniProt P05186); experiment: TNAP enzyme activators, dose response, selectivity assay for human IAP activator project, biochemical, TNAP isozyme, human IAP uHTS hits (AID 488886); type: functional;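 further: potency of compounds raising TNAP activity as a selectivity check on IAP activators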
T3 sequence (P05186 whole entry): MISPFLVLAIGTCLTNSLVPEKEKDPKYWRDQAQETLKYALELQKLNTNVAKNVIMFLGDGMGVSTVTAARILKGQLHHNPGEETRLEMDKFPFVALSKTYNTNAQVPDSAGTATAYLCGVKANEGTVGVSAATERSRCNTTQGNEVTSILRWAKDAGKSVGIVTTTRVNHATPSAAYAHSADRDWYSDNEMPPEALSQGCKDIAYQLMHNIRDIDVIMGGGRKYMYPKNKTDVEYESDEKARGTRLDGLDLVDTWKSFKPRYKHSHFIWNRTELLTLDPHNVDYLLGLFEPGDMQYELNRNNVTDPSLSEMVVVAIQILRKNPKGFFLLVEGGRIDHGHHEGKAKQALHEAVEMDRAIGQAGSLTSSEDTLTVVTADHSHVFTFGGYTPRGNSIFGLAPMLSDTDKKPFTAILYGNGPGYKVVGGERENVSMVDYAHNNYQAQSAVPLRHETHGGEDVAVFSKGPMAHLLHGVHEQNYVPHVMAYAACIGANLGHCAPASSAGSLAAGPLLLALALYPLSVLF

[6] = target: T4, Intestinal-type alkaline phosphatase (Mus musculus, UniProt P24822); experiment: PubChem AID 488875; type: functional
T4 sequence (P24822 whole entry): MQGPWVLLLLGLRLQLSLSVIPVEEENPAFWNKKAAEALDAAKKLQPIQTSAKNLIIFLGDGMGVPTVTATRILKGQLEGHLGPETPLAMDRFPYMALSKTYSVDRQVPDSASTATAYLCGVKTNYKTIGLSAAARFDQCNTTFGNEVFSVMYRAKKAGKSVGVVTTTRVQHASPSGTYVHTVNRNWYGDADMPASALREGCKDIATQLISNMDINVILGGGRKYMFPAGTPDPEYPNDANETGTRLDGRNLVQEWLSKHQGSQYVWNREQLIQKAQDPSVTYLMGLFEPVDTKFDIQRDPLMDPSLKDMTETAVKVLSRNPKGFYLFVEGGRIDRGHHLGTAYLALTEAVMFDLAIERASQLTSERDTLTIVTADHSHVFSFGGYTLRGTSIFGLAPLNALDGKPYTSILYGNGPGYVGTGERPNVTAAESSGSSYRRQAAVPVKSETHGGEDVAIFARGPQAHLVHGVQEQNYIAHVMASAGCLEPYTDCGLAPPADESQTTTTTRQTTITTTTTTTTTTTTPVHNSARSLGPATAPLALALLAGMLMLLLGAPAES

[7] = target: T5, Intestinal-type alkaline phosphatase (Homo sapiens, UniProt P09923); experiment: human intestinal alkaline phosphatase activators, dose response, biochemical, luminescence, uHTS hits (AID 463120); type: functional
T5 sequence (P09923 whole entry): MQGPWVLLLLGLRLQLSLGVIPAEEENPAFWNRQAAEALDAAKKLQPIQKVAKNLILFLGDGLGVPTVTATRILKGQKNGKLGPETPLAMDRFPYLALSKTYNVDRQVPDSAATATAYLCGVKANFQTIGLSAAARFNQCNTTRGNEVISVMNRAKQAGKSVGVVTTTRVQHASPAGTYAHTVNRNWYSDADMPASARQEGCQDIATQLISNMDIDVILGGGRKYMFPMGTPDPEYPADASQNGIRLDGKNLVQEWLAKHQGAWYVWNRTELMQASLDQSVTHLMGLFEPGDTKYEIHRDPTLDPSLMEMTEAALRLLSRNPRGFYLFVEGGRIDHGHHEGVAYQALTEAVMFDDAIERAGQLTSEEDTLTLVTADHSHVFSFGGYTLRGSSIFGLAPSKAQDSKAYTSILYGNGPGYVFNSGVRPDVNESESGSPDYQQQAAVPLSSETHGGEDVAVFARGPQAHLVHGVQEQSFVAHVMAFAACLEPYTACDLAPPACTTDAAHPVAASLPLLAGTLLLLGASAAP

[8] = target: T5, Intestinal-type alkaline phosphatase; experiment: human IAP activators, dose response, biochemical, luminescent, uHTS hits, set 2 (AID 488817); type: functional;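 further: potency of activators that raise enzyme activity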
[9] = target: T4, Intestinal-type alkaline phosphatase; experiment: PubChem AID 488874; type: functional

IC50 (Perilipin-1/ABHD5): 11.5 µM (inactive)
IC50 [1]: 15.3 µM (inactive)
SMILES: CCOC(=O)C(=Cc1ccccc1OC)C(=O)OCC

IC50 [2]: > 100 µM (inactive)
IC50 [3]: > 100 µM (not active)
SMILES: CCOc1ccc(NC(=S)NCCCN2CCN(C3CCCCC3)CC2)cc1

The next lines start with the compound.

SMILES: COC(=O)c1cccc(NC(=O)Nc2ccc(Cl)cc2)c1
EC50 (Ion channel NompC): > 29.9 µM (inactive)
EC50 (Mucolipin-3): > 29.9 µM (not active)

SMILES: Cc1ccc(C#N)c(OCCOc2ccc(Cl)cc2Cl)n1
EC50 [4]: > 50 µM (inactive)

SMILES: CC(NS(=O)(=O)c1ccc(Br)cc1)C(=O)Nc1nc2ccccc2[nH]1 (configuration not stated)
EC50 [5]: 14.3 µM (active)
EC50 [6]: > 100 µM (inactive)
EC50 [7]: 11 µM (active)
EC50 [8]: 13.3 µM (active)
IC50 [9]: > 100 µM (inactive)
